Assay results taken from patent US12674139B2, “Serum-free medium not containing albumin and suited for culturing human hematopoietic stem cells, and albumin-free culturing method” (The University of Tokyo, priority 2019, dated 2026).
Non-standard residues stand in square brackets, D forms with d. No end group written: not given here. pY = N[C@@H](Cc1ccc(OP(=O)(O)O)cc1)C(=O)O

Columns and labels:
human CD34+ cells [1] = experiment: Culture of human bone marrow or umbilical cord blood CD34+ cells in PVA medium, proliferation rate by cell count and flow cytometry; conditions: for ratio of number of cells at day 7 relative to first day of culture: TPO replaced with TPO receptor agonist; for proliferation rate of total cells and CD34+ cells relative to start of culture: neither SCF nor TPO, 20 μM PI3Ka, 0.1 μM TPOago or both
From the text: The cells were dispensed to a 24-well plate at 0.2 to 1.0×10^5 cells per well, TPO was removed from a culture medium for human hematopoietic stem cells and replaced with any of the above-mentioned TPO receptor agonists (hereinafter, may be referred to as “TPOago”) to perform the experiment. The ratio of the number of cells at day 7 of culture relative to the first day of culture was obtained.
Subsequently, whether or not SCF and TPO can be replaced with PI3Ka and a TPO receptor agonist in the absence of albumin and in the presence of PVA was examined. In the following example, butyzamide was used as a TPO receptor agonist. […] Seven days later, the number of total cells was obtained, and the number of CD34+ cells was obtained by flow cytometry. Then, the proliferation rate compared with the start of culture was obtained.
Further, subsequently, a culture experiment of human hematopoietic stem cells was performed in a culture medium comprising neither SCF nor TPO to which 20 μM PI3Ka or 0.1 μM TPOago or both were added.
Further, subsequently, which cell population easily proliferated in a medium in which SCF and TPO were replaced with PI3Ka and TPOago was examined. CD34^+ cells isolated from given fresh umbilical cord blood using microbeads as described above were used in the culture experiment.
The cells were dispensed to a 24-well plate at 0.2×10^5 to 1.0×10^5 cells per well, and CD34^+ cells were cultured in the prepared media.

Mpl32D cells = experiment: Culture with TPO receptor agonists as TPO replacements, with albumin or PVA; format: cell-based, human; conditions: 0.1 μM butyzamide, 3 μg/mL eltrombopag, 3 μM avatrombopag
Method: Subsequently, whether or not TPO can be replaced with a TPO receptor agonist in culture of human hematopoietic stem cells was examined. Butyzamide, eltrombopag, and avatrombopag are known as TPO receptor agonists. Human hematopoietic stem cells were cultured in the presence of 0.1% recombinant human serum albumin (Albumin Biosciences) or in the presence of PVA in the above-mentioned culture medium having a composition from which TPO was removed and to which 0.1 μM butyzamide, 3 μg/mL eltrombopag, or 3 μM avatrombopag was added. In this experiment, Mpl32D cells were used as human hematopoietic stem cells.

human CD34+ cells [2] = experiment: Colony assay in MethoCult H4415 medium with Giemsa staining; format: cell-based; conditions: cells after 7 days culture; 20 μM PI3Ka + 0.1 μM butyzamide versus PI3Ka + TPO
From the text: Subsequently, whether or not SCF and TPO can be replaced with PI3Ka and a TPO receptor agonist in the absence of albumin and in the presence of PVA was examined. In the following example, butyzamide was used as a TPO receptor agonist. Purchased human bone marrow CD34+ cells (distributor name, Lonza; product number 2C-101) or CD34+ cells isolated from given fresh umbilical cord blood using microbeads as described above were used in the culture experiment. […] Two weeks later, colonies were picked up, cytospin specimens were prepared, Giemsa staining was performed, and then the types of colonies were determined under a microscope. The number of GEmM colonies per 50 CD34+ cells was counted, and the percentage increase in the number of colonies compared with before culture was obtained.
Further, 100 CD34+ cells obtained in the culture at […] after the start of culture were seeded each on a MethoCult™ H4415 medium, and a colony assay was performed. […] Then, after Giemsa staining was performed for the specimens, the types of colonies were determined under a microscope.

[3] = tested on: human hematopoietic stem cells (CD34+CD38− cells); experiment: Proliferation of human hematopoietic stem cells in albumin-free serum-free PVA medium; format: cell-based; conditions: no albumin
Method: In this example, an assay was performed in which mouse hematopoietic stem cells (KSL cells) and human hematopoietic stem cells (CD34^+CD38^− cells) were allowed to proliferate in a culture medium not comprising albumin. The culture medium was a serum-free medium comprising polyvinyl alcohol (PVA) and not comprising albumin, as described in Wilkinson et al., Nature, 571:117-121, 2019.
Specifically, the culture medium used for culture of mouse hematopoietic stem cells was an F12 medium comprising 1% insulin-transferrin-selenium-ethanolamine (ITSX), 10 mM HEPES, 1% penicillin-streptomycin-glutamine, 100 ng/mL mouse thrombopoietin (mTPO), and 10 ng/mL mouse stem cell factor (mSCF). The medium comprised PVA at the final concentration of 0.1%. The culture medium used for culture of human hematopoietic stem cells was an IMDM medium comprising 1% insulin-transferrin-selenium-ethanolamine (ITSX), 25 mM HEPES, 1% penicillin-streptomycin-glutamine, 100 ng/mL human thrombopoietin (hTPO), and 10 ng/mL human stem cell factor (hSCF). The medium comprised PVA at the final concentration of 0.1%.
Unless otherwise specified, all media used in the following examples were an IMDM medium comprising 1% insulin-transferrin-selenium-ethanolamine (ITSX), 25 mM HEPES, 1% penicillin-streptomycin-glutamine, and PVA (hereinafter, also referred to as “common medium”). Therefore, hereinafter, description of the medium will be focused on components added to the common medium. For example, given that the above-mentioned medium comprises TPO and SCF in addition to the common medium, it is to be referred to as a TPO+SCF medium for the purpose of convenience. […]
Accordingly, human hematopoietic stem cells were cultured in a culture medium comprising 0.3 μM AKTa (name of distributer, Sigma-Aldrich; product number 123871) or 20 μM PI3Ka. Cells were counted after 3 days, 5 days, and 7 days of culture, and the ratios of the number of cells at each time point to the number of cells on the first day of culture, which was standardized as 1, were obtained. […]

[4] = 0.1% recombinant human serum albumin, no TPO
[5] = day 7, 20 μM PI3Ka + TPO 100 ng/mL

## CC(C)n1cnc2c(NCCc3ccc(O)cc3)nc(-c3csc4ccccc34)nc21 [SR-1]
Human CD34+ cells [1]; day 14, added to 20 μM PI3Ka + 0.1 μM TPOago, SR-1 500 nM, UM171 35 nM
  proliferation rate of total cells relative to before start of culture: killed cells

## O=C(Nc1nc(-c2cc(Cl)cs2)c(N2CCN(C3CCCCC3)CC2)s1)c1cnc(N2CCC(C(=O)O)CC2)c(Cl)c1 [avatrombopag]
Human CD34+ cells [1]; PVA, no albumin
  ratio of number of cells at day 7 relative to first day of culture: Death of hematopoietic stem cells occurred
Mpl32D cells; [4]
  proliferation (change with time in number of cells): could support proliferation
Mpl32D cells; PVA, no albumin
  proliferation (change with time in number of cells): low effect

## CCCOC(c1cccc(-c2csc(NC(=O)c3cc(Cl)c(C=C(C)C(=O)O)c(Cl)c3)n2)c1OC)C(C)(C)C (centres unmarked) [butyzamide, 3-[4-[[[4-[2-methoxy-3-(1-tert-butyl-2-oxapentan-1-yl)phenyl]thiazol-2-yl]amino]carbonyl]-2,6-dichlorophenyl]-2-methylpropenoic acid]
Human CD34+ cells [1]; PVA, no albumin
  ratio of number of cells at day 7 relative to first day of culture: significantly proliferated
Human CD34+ cells [1]; day 7, 20 μM PI3Ka + 0.1 μM butyzamide versus 20 μM PI3Ka + TPO 100, PVA, no albumin, no SCF
  proliferation rate of total cells and CD34+ cells compared with start of culture: could completely replace TPO
Human CD34+ cells [1]; day 7, PVA, no albumin
  proliferation rate of total cells and CD34+ cells relative to start of culture: increases of cells were not observed
Mpl32D cells; [4]
  proliferation (change with time in number of cells): could support proliferation
Mpl32D cells; PVA, no albumin
  proliferation (change with time in number of cells): marked proliferative effect
Human CD34+ cells [2]
  GEmM colony forming ability (number of GEmM colonies per 50 CD34+ cells): could completely replace TPO

## PI3Ka: peptide of amino acid sequence RQIKIWFQNRRMKWKKSDGGYMDMS in which Y is phosphorylated; Tocris product number 1983 (RQIKIWFQNRRMKWKKSDGG[pY]MDMS)
Human CD34+ cells [1]; day 7, PVA, no albumin
  proliferation rate of total cells and CD34+ cells relative to start of culture: increases of cells were not observed
[3]; 3, 5, 7 days, SCF 10 ng/mL + TPO 100 ng/mL, 0.3 μM AKTa or 20 μM PI3Ka
  ratio of number of cells to first day of culture: clearly proliferated
[3]; [5]
  number of CD34+ cells, with SCF versus without SCF: no significant difference
  number of total cells, with SCF versus without SCF: no significant difference
